In PubChem BioAssay AID2765 (Broad Institute, 2010) one finds EC50 data, which are given here for 82 compounds.

Calls of active or inactive are those of the source.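 How the source made its calls: active means half-maximal concentration for the rise in caspase light signal at or below ten times the top tested dose; inconclusive means flat fit between 30% and 70% activity, or unreliable curve fit; inactive means the rest.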

As usually defined, the EC50 is the concentration needed to bring the measured effect to its halfway point.

In this assay the test system is MEF A1-2A-BIM cells, caspase 3/7 luminescence, 3 h. The assay can be described thus: caspase activation in A1-2A-BIM MEF cells, dose response, A1 inhibitor project, cell-based, luminescence, retest (AID 2765).
Turning to `COCCCn1cc(C(=O)c2cc(OC)ccc2OCC(=O)N2CCCCC2C)cc(C#N)c1=O` (configuration not stated), the EC50 was > 35 µM (inactive). Turning to `Cc1cc(C)cc(NC(=O)/C(C#N)=C/c2cn(CC(=O)NCc3ccco3)c3ccccc23)c1`, the EC50 was 4.65 µM. The result for `CCOc1ccc(-c2ccc(NS(=O)(=O)c3ccc([N+](=O)[O-])cc3)cc2)nn1` reads > 35 µM (inactive); that for `O=C(CSc1ccc2ccccc2c1)NCCc1ccc(O)c(O)c1`, > 35 µM (inactive). `O=C1C(Cc2ccccc2)SC(=Nc2ccccc2)N1c1ccccc1` (configuration not stated): the EC50 was > 35 µM (inactive).

As for `O=C(CN1C(=O)COc2ccccc21)NCCCN1CCc2ccccc2C1`, the EC50 was > 35 µM (inactive). For `COc1cc2sc3ccc(C#Cc4ccc(N)cc4)cc3c(=O)c2cc1OC` the value was > 35 µM (inactive); for `COc1ccc2c(c1)CCc1c(C(=O)Nc3cc(C)n(Cc4ccc(Cl)cc4)n3)noc1-2`, 15 µM.

`COc1ccc(NC(=O)c2cccc3c2C(=O)c2ccc(-c4ccc(F)cc4OCc4ccccc4)cc2S3(=O)=O)cc1`: the EC50 was > 35 µM (inactive). The result for `O=C(/C=C/N1CCN(Cc2ccccc2)CC1)C(F)(F)F` reads > 35 µM (inactive); that for `CC(=O)Nc1ccc(S(=O)(=O)NCCc2ccccn2)cc1`, > 35 µM (inactive).

Take `CCC1(C(=O)c2ccc(Cl)cc2)C2c3ccccc3OC(=O)C21C(=O)Nc1ccccc1` (configuration not stated): the EC50 was > 35 µM (inactive). `Cc1cccc(C)c1NC(=O)C(Cl)C(=O)c1ccccc1` (configuration not stated): the EC50 is > 35 µM (inactive). On to `O=C(CN1CCN(Cc2ccccc2)CC1)Nc1ccc(Br)cc1`, for which the EC50 is > 35 µM (inactive). Consider `COc1ccc(C2(C(=O)NCCCN(C)C)CCOCC2)cc1`, for which the EC50 is > 35 µM (inactive).

`COC(=O)Cc1csc(/N=C/c2c(O)n(-c3cccc(C(F)(F)F)c3)c(=O)c3ccccc23)n1`: the concentration for a half-maximal effect (EC50) is 5.7 µM.

For the compound `CCCc1nc2sc3c(c2c(=O)n1N)CCC3`, the EC50 was > 35 µM (inactive). For `CCOc1ccccc1/C=C/c1nc2ccccc2[nH]c1=O` the value was > 35 µM (inactive); for `COC(=O)C1=C(c2ccc(F)cc2F)C[C@@H]2CC[C@H]1N2C(=O)N1CCC(O)CC1`, > 35 µM (inactive); for `COc1ccc(-c2ccc3c(c2)S(=O)(=O)c2cccc(C(=O)NCCOc4ccccc4)c2C3=O)cc1OC`, > 35 µM (inactive). For `COc1ccc(C2Nc3ccc4ccccc4c3-c3c2c(=O)oc2ccccc32)cc1` (configuration not stated) the value was 11 µM; for `Cc1ccc(NC(=S)NC(NC(=O)Cc2cccc3ccccc23)C(Cl)(Cl)Cl)cc1` (configuration not stated), 20 µM. For the compound `O=C(N/N=C/c1ccc(Cl)cc1Cl)c1ccc2nc[nH]c2c1`, the EC50 was > 35 µM (inactive). For the compound `O=C(Nc1ccc(S(=O)(=O)N2CCOCC2)cc1)c1ccco1`, the EC50 is > 35 µM (inactive).

In the case of `CCCCCCC(=O)Nc1cc2c(C)cc(=O)oc2cc1C`, the EC50 was > 35 µM (inactive). The result for `Cc1cc(Nc2ccc(Cl)cc2)n2ncnc2n1` reads > 35 µM (inactive); that for `O=C(Nc1cccc([N+](=O)[O-])c1)Nc1ccc2c(c1)CCC2`, > 35 µM (inactive). Turning to `CCCCCC(=O)N1CCCC1`, the EC50 is > 35 µM (inactive).

With `CC(C)c1nnc(NC(=O)COC(=O)/C=C/c2ccc([N+](=O)[O-])cc2)s1`, the EC50 is > 35 µM (inactive). Take `O=S1(=O)CCOC[C@H](CC2CCCCC2)N1Cc1cccc(Cl)c1`: the EC50 is > 35 µM (inactive). For `NS(=O)(=O)c1ccc(N/N=C/c2cn(-c3ccccc3)nc2-c2ccccc2)c([N+](=O)[O-])c1`, the EC50 is 27.1 µM. The result for `COC(=O)[C@@]1(C)CC[C@]2(C)CC[C@@]3(C)C(=CC(=O)C4[C@@]5(C)CC[C@H](O)C(C)(C)[C@@H]5CC[C@]43C)[C@H]2C1` (some centres not stated) reads > 35 µM (inactive); that for `N#Cc1cc(C(=O)c2cc(Br)ccc2O)cn(C2CC2)c1=O`, > 35 µM (inactive); that for `CN(C)c1ccc(NC(=O)C2CCCN(S(=O)(=O)c3ccccc3)C2)cc1` (configuration not stated), > 35 µM (inactive). `O=C(c1ccco1)N1CCN(C(=O)c2cc(-c3ccccn3)nc3ccc(Cl)cc23)CC1`: the EC50 was > 35 µM (inactive). For the compound `COc1ccc(-c2nn(-c3ccccc3)cc2/C=C/C(=O)OCC(=O)Nc2ccccc2C#N)cc1`, the EC50 was 21.2 µM. The result for `COc1ccccc1CNC(=O)COc1ccc([N+](=O)[O-])cc1` reads > 35 µM (inactive). With `CCN(C(=O)CSc1nc2ccccc2n1CC)C1CCS(=O)(=O)C1` (configuration not stated), the EC50 is > 35 µM (inactive). As to `C=C1C(=O)O[C@@H]2C[C@@H](C)[C@@H]3C=CC(=O)[C@@]3(C)[C@@H](OC(C)=O)[C@H]12`, the EC50 is > 35 µM (inactive). Regarding `O=C(NCNC(=O)NC1C(=O)NC(=O)N1CO)NC1C(=O)NC(=O)N1CO` (configuration not stated), the EC50 was > 35 µM (inactive). Regarding `CC(=O)OC(C)(C)/C=C/C(=O)C(C)(O)C1[C@H](O)C[C@@]2(C)C3CC=C4C(CC[C@@H](O)C4(C)C)[C@]3(CO)C(=O)C[C@]12C` (some centres not stated), the EC50 was > 35 µM (inactive). `CNC(C)C(=O)NC(C(=O)N1CCCC1C(=O)NC1CCCc2ccccc21)C(C)C` (configuration not stated): the EC50 was > 35 µM (inactive). Turning to `C#CCOCCOCCOCCNc1nc(N2CCN(C(=O)[C@H](CCCCN)n3cc(CCCC)nn3)CC2)nc(N2CCN(C(=O)[C@H](CCCCN)n3cc(CCC(=O)O)nn3)CC2)n1`, the EC50 was > 35 µM (inactive). As for `COc1ccc(NC(=O)CN2CCN(CC(=O)Nc3ccccc3Cl)CC2)cc1Cl`, the EC50 was > 35 µM (inactive). On to `CCCCc1ccc(NC(=O)CN(C)CC(=O)Nc2ccccc2Cl)cc1`, for which the EC50 is > 35 µM (inactive). For the compound `Cc1csc(NC(=O)c2cccc(S(=O)(=O)N3CCN(C)CC3)c2)n1`, the EC50 is > 35 µM (inactive). The result for `Cc1ccc2c(c1)C(=O)C(=O)N2Cc1ccc(Cl)cc1` reads > 35 µM (inactive); that for `O=C(COc1ccc(/C=N/NC(=O)c2cc3ccccc3o2)cc1Cl)Nc1ccccc1`, 6.55 µM. On to `Cc1c(Cl)cccc1NC(=O)CN1CCN(CCN=CC2=C(O)CC(c3ccccc3)CC2=O)CC1` (configuration not stated), for which the EC50 was > 35 µM (inactive). Take `CC(CC(=O)N1CCN(c2cccc(Cl)c2)CC1)S(=O)(=O)c1ccc2c(c1)NC(=O)CO2` (configuration not stated): the EC50 is > 35 µM (inactive). Regarding `CC(C)(C)CC(=O)Nc1nnc(SCC(=O)NC2CCCCC2)s1`, the EC50 was > 35 µM (inactive).

As for `CC(C)CC(NC(=O)c1ccc(Cl)cc1)C(=O)OCC(=O)c1ccc2c(c1)NC(=O)CO2` (configuration not stated), the EC50 was 5.35 µM. For `CC(C)(C)C#CC(CCc1ccccc1)OS(N)(=O)=O` (configuration not stated), the EC50 is > 35 µM (inactive).

For the compound `Cc1occc1-c1nnc(-c2cc([N+](=O)[O-])cc([N+](=O)[O-])c2)o1`, the EC50 is > 35 µM (inactive). Regarding `COc1ccc(S(=O)(=O)N(C)C[C@H]2Oc3ccc(NC(=O)Nc4c(C)noc4C)cc3C(=O)N([C@H](C)CO)C[C@@H]2C)cc1`, the EC50 is > 35 µM (inactive). The result for `O=C(CSc1ncccc1C(=O)O)NC1CCCCC1` reads > 35 µM (inactive).

Take `CCc1ccc2nc(N(CCCN(C)C)C(=O)c3ccc(S(=O)(=O)N4CCc5ccccc5C4)cc3)sc2c1`: the EC50 is > 35 µM (inactive). Regarding `NC(=O)c1ccc[n+](CC(=O)NCc2ccc(Cl)cc2)c1`, the EC50 is > 35 µM (inactive). Take `CC(NC(=O)c1cccc(OC2CCN(C3CCN(C)CC3)CC2)c1)c1ccccc1` (configuration not stated): the EC50 is > 35 µM (inactive). On to `Nc1nc(CSc2nc3ccccc3[nH]2)nc(N2CCOCC2)n1`, for which the EC50 is > 35 µM (inactive). For `Nc1c(C(=O)Nc2ccc(S(=O)(=O)N3CCCC3)cc2)sc2nc3ccc(OC(F)(F)F)cc3cc12`, the EC50 was 8.62 µM. For `COc1ccc(CC(=O)Nc2ccc3c(c2)CCC3)cc1S(=O)(=O)N1CCOCC1` the value was > 35 µM (inactive); for `COc1ccc(N2C(=O)CCC(C(=O)O)C2c2ccc(OC)c(OC)c2)cc1` (configuration not stated), > 35 µM (inactive). For the compound `O=C(Cn1c(=O)c2cccn2c2cccnc21)N1CCN(c2ccc(Cl)cc2)CC1`, the EC50 is > 35 µM (inactive).

For `CC1=C(C(N)=O)C(c2ccc3c(c2)OCO3)n2nc(-c3cccc(C)c3)nc2N1` (configuration not stated), the EC50 is > 35 µM (inactive). For `O=C1/C(=C/c2ccc(N3CCOCC3)o2)SC(=Nc2ccccc2)N1CCc1c[nH]c2ccccc12`, the EC50 was 9.16 µM. Turning to `NS(=O)(=O)c1ccc(NC(=O)c2ccc3c(c2)CCCC3)cc1`, the EC50 is > 35 µM (inactive). `NCC1CCC(C(=O)Oc2ccc(CCC(=O)O)cc2)CC1` (configuration not stated): the EC50 is > 35 µM (inactive).

As to `CCCc1nc2cc3c(cc2[nH]1)n(C)c(=O)n3C`, the EC50 is > 35 µM (inactive). The result for `O=C(Nc1ccc2oc(-c3ccccc3F)nc2c1)c1ccccc1F` reads > 35 µM (inactive); that for `COc1ccc(NC(=O)C(NC(C)=O)C(=O)NCc2ccccc2Cl)cc1` (configuration not stated), > 35 µM (inactive). The result for `NS(=O)(=O)c1ccc(S(=O)(=O)c2ccccc2)nc1` reads > 35 µM (inactive); that for `Clc1nc(NCc2ccco2)nc(N2CCCCC2)n1`, > 35 µM (inactive). Take `Cc1ccc(/C=C/C(=O)Nc2sc(C)c(C)c2C(=O)OC(C)C)o1`: the EC50 is > 35 µM (inactive). In the case of `Cc1ccc(NC(=O)COC(=O)CCc2c(C)nc3ncnn3c2C)cc1C`, the EC50 was > 35 µM (inactive).

Turning to `Cc1[nH]nc2nc(SCC(=O)NCCC3=CCCCC3)n(-c3ccc(Br)cc3)c(=N)c12`, the EC50 is 13.9 µM. Regarding `CCS(=O)(=O)c1ncc(Cl)c(C(=O)Nc2ccc(S(=O)(=O)N3CCC(C)CC3)cc2)n1`, the EC50 is > 35 µM (inactive). As for `C[C@]12CC[C@H](O)C[C@H]1CC[C@@H]1[C@@H]2CC[C@]2(C)[C@@H](C3=CC(=O)OC3)CC[C@]12O`, the EC50 is > 35 µM (inactive). In the case of `CCN(CC)S(=O)(=O)c1cc(NC(=O)C2Cc3ccccc3C(=O)O2)ccc1C` (configuration not stated), the EC50 was > 35 µM (inactive). The result for `CCc1nc(N=Nc2c(O)[nH]c3ccccc23)c2c3c(sc2n1)CCC3` reads 20.8 µM.

Turning to `COc1ccc(-c2nc(CN3CCN(C(=O)c4ccco4)CC3)c(C)o2)cc1OC`, the EC50 was > 35 µM (inactive). For the compound `FC(F)(F)c1ccc(Sc2n[nH]c(C(F)(F)F)n2)nc1`, the EC50 was > 35 µM (inactive).
